Measured values from patent publication US20210122730A1, “GLUCOCORTICOID RECEPTOR MODULATORS” (ORIC Pharmaceuticals, Inc., priority 2017, published 2021).
One block for each compound: values may come before it.

Biological target: T1, GR (Homo sapiens, UniProt P04150)
T1 construct: expressed in transfected cells; host or cells: CHO-K1
T1 sequence (P04150 1-777): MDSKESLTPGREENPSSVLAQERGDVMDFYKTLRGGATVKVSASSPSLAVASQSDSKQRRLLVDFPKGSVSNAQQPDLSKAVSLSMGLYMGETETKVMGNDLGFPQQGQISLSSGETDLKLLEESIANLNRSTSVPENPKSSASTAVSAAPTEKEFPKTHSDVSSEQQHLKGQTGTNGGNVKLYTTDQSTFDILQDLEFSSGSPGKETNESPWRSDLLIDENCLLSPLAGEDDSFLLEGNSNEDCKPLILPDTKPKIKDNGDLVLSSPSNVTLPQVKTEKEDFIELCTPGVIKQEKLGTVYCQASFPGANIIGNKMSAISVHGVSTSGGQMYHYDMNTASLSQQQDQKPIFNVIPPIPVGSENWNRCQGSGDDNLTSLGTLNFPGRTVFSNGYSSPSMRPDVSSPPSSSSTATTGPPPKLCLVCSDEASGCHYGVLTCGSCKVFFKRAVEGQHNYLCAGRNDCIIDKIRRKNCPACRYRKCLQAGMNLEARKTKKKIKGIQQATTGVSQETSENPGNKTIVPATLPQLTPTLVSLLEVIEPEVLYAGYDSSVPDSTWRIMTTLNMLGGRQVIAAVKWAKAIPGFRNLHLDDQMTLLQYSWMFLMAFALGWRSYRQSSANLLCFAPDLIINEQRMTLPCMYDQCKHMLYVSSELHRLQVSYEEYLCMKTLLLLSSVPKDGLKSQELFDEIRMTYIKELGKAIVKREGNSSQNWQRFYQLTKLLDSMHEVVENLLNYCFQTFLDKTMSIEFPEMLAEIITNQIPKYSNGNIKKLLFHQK
Assay: In Vitro GR Luciferase Reporter Assay (antagonist mode, CHO-K1-GR-MMTV-Luc reporter cells)
Format: cell-based
Details: antagonist assay with 10 nM Dexamethasone, 18-24 hours
Excerpt: Example A: In Vitro GR Luciferase Reporter Assay
Cell Line: CHO-K1-GR-MMTV-Luc reporter cells
Culture Media: DMEM (with phenol red)+10% FBS
Assay Media: DMEM (without phenol red)+10% CSS
Culture CHO-K1I-GR-MMTV-Luc reporter cells in 15 cm plates in Culture Media at conditions less than 90% confluence.
Prepare 200×DMSO 1:5 serial dilutions of control and test compounds in 96-well non-sterile V bottom plate in DMSO, 8serial dilutions for each compound.
Prepare 5× Assay Media diluted compound serial dilutions in 96-well non-sterile V bottom plate: Add 97.5 uL/well of Assay Media into 96-well then add 2.5 ul of 200× concentration of compounds and mix well.
Seed cells for Antagonist Assay: […] CHO-K1-GR-MMTV-Luc reporter cells were seeded in a Corning 3707 flat clear bottom 384-well white TC plate in 20 ul of Assay Media containing 12.5 nM Dexamethasone (final concentration=10 nM).
Add compounds: 5 ul of assay media diluted compounds were added to appropriate wells and followed a quick spin (1000 rpm, 10 sec) to bring media and cells to the bottom of plate. The plates were covered with SealMate film to avoid evaporation and placed in 37° C. incubator for approximately 18-24 hours.
Read plates: Equilibrate appropriate amount of Promega OneGlo luciferase reagent to room temperature. Remove the plates from incubator and add 25 uL of OneGlo reagent/well by multiple channel pipette and read the plates with Tecan F500 luminometer within 3 minutes.
The ability of the compounds disclosed herein to inhibit GR activity was quantified and the respective IC50 value was determined. Table 1and Table 2provide the cellular IC50 values of compounds disclosed herein.

SMILES: O=C(c1ccccn1)[C@]12Cc3cnn(-c4ccc(F)cc4)c3C=C1CC[C@H](S(=O)(=O)c1cccc(Cl)c1)C2 [Example 37, ((4aS,6S)-6-((3-chlorophenyl)sulfonyl)-1-(4-fluorophenyl)-1,4,5,6,7,8-hexahydro-4aH-benzo[f]indazol-4a-yl)(pyridin-2-yl)methanone]
IC50: ≤ 100 nM

SMILES: Cc1ccnc(C(=O)[C@]23Cc4cnn(-c5ccc(F)cc5)c4C=C2CC[C@@H](S(=O)(=O)c2ccccc2)C3)c1 [Example 38, ((4aS,6R)-1-(4-fluorophenyl)-6-(phenylsulfonyl)-1,4,5,6,7,8-hexahydro-4aH-benzo[f]indazol-4a-yl)(4-methylpyridin-2-yl)methanone]
IC50: ≤ 100 nM

SMILES: Cc1ccnc(C(=O)[C@]23Cc4cnn(-c5ccc(F)cc5)c4C=C2CC[C@H](S(=O)(=O)c2cnn(C)n2)C3)c1 [Example 39, ((4aS,6S)-1-(4-fluorophenyl)-6-((2-methyl-2H-1,2,3-triazol-4-yl)sulfonyl)-1,4,5,6,7,8-hexahydro-4aH-benzo[f]indazol-4a-yl)(4-methylpyridin-2-yl)methanone]
IC50: ≤ 100 nM

SMILES: Cc1ccc(C(=O)[C@]23Cc4cnn(-c5ccc(F)cc5)c4C=C2CC[C@H](S(=O)(=O)c2ccccn2)C3)nc1 [Example 42, ((4aS,6S)-1-(4-fluorophenyl)-6-(pyridin-2-ylsulfonyl)-1,4,5,6,7,8-hexahydro-4aH-benzo[f]indazol-4a-yl)(5-methylpyridin-2-yl)methanone]
IC50: ≤ 100 nM

SMILES: Cc1ccnc(C(=O)[C@]23Cc4cnn(-c5ccc(F)cc5)c4C=C2CC[C@H](S(=O)(=O)c2cccc(Cl)c2)C3)c1 [Example 44, ((4aS,6S)-6-((3-chlorophenyl)sulfonyl)-1-(4-fluorophenyl)-1,4,5,6,7,8-hexahydro-4aH-benzo[f]indazol-4a-yl)(4-methylpyridin-2-yl)methanone]
IC50: ≤ 100 nM

SMILES: Cc1ccc(C(=O)[C@]23Cc4cnn(-c5ccc(F)cc5)c4C=C2CC[C@H](S(=O)(=O)c2ccccc2)C3)nc1 [Example 45, ((4aS,6S)-1-(4-fluorophenyl)-6-(phenylsulfonyl)-1,4,5,6,7,8-hexahydro-4aH-benzo[f]indazol-4a-yl)(5-methylpyridin-2-yl)methanone]
IC50: ≤ 100 nM

SMILES: O=C(c1ccccn1)[C@]12Cc3cnn(-c4ccc(F)cc4)c3C=C1CC[C@H](S(=O)(=O)c1ccncc1)C2 [Example 47, ((4aS,6S)-1-(4-fluorophenyl)-6-(pyridin-4-ylsulfonyl)-1,4,5,6,7,8-hexahydro-4aH-benzo[f]indazol-4a-yl)(pyridin-2-yl)methanone]
IC50: ≤ 100 nM

SMILES: Cc1ccnc(C(=O)[C@]23Cc4cnn(-c5ccc(F)cc5)c4C=C2CC[C@H](S(=O)(=O)c2ccncc2)C3)c1 [Example 48, ((4aS,6S)-1-(4-fluorophenyl)-6-(pyridin-4-ylsulfonyl)-1,4,5,6,7,8-hexahydro-4aH-benzo[f]indazol-4a-yl)(4-methylpyridin-2-yl)methanone]
IC50: ≤ 100 nM

SMILES: CC(C)(C)CS(=O)(=O)[C@H]1CCC2=Cc3c(cnn3-c3ccc(F)cc3)C[C@]2(C(=O)c2ccccn2)C1 [Example 49, ((4aS,6S)-1-(4-fluorophenyl)-6-(neopentylsulfonyl)-1,4,5,6,7,8-hexahydro-4aH-benzo[f]indazol-4a-yl)(pyridin-2-yl)methanone]
IC50: ≤ 100 nM

SMILES: Cc1ccc(C(=O)[C@]23Cc4cnn(-c5ccc(F)cc5)c4C=C2CC[C@@H](S(=O)(=O)c2ccccc2)C3)nc1 [Example 51, ((4aS,6R)-1-(4-fluorophenyl)-6-(phenylsulfonyl)-1,4,5,6,7,8-hexahydro-4aH-benzo[f]indazol-4a-yl)(5-methylpyridin-2-yl)methanone]
IC50: ≤ 100 nM

SMILES: O=C(c1ccccn1)[C@]12Cc3cnn(-c4ccc(F)cc4)c3C=C1CC[C@H](S(=O)(=O)c1cccnc1)C2 [Example 53, ((4aS,6S)-1-(4-fluorophenyl)-6-(pyridin-3-ylsulfonyl)-1,4,5,6,7,8-hexahydro-4aH-benzo[f]indazol-4a-yl)(pyridin-2-yl)methanone]
IC50: ≤ 100 nM

SMILES: O=C(c1ccc(C2CC2)cn1)[C@]12Cc3cnn(-c4ccc(F)cc4)c3C=C1CC[C@H](S(=O)(=O)c1ccccn1)C2 [Example 57, (5-cyclopropylpyridin-2-yl)((4aS,6S)-1-(4-fluorophenyl)-6-(pyridin-2-ylsulfonyl)-1,4,5,6,7,8-hexahydro-4aH-benzo[f]indazol-4a-yl)methanone]
IC50: ≤ 100 nM

The remaining lines, values ahead:

IC50: ≤ 100 nM
SMILES: CC(C)(C)S(=O)(=O)[C@H]1CCC2=Cc3c(cnn3-c3ccc(F)cc3)C[C@]2(C(=O)c2ccccn2)C1 [Example 40, ((4aS,6S)-6-(tert-butylsulfonyl)-1-(4-fluorophenyl)-1,4,5,6,7,8-hexahydro-4aH-benzo[f]indazol-4a-yl)(pyridin-2-yl)methanone]

IC50: ≤ 100 nM
SMILES: O=C(c1cc(C(F)(F)F)ccn1)[C@]12Cc3cnn(-c4ccc(F)cc4)c3C=C1CC[C@H](S(=O)(=O)c1ccccn1)C2 [Example 41, ((4aS,6S)-1-(4-fluorophenyl)-6-(pyridin-2-ylsulfonyl)-1,4,5,6,7,8-hexahydro-4aH-benzo[f]indazol-4a-yl)(4-(trifluoromethyl)pyridin-2-yl)methanone]

IC50: ≤ 100 nM
SMILES: O=C(c1ccccn1)[C@]12Cc3cnn(-c4ccc(F)cc4)c3C=C1CC[C@H](S(=O)(=O)c1cc(C(F)(F)F)ccn1)C2 [Example 43, ((4aS,6S)-1-(4-fluorophenyl)-6-((4-(trifluoromethyl)pyridin-2-yl)sulfonyl)-1,4,5,6,7,8-hexahydro-4aH-benzo[f]indazol-4a-yl)(pyridin-2-yl)methanone]

IC50: ≤ 100 nM
SMILES: O=C(c1ccccn1)[C@]12Cc3cnn(-c4ccc(F)cc4)c3C=C1CC[C@H](S(=O)(=O)C1CCOCC1)C2 [Example 46, ((4aS,6S)-1-(4-fluorophenyl)-6-((tetrahydro-2H-pyran-4-yl)sulfonyl)-1,4,5,6,7,8-hexahydro-4aH-benzo[f]indazol-4a-yl)(pyridin-2-yl)methanone]

IC50: ≤ 100 nM
SMILES: O=C(c1ccccn1)[C@]12Cc3cnn(-c4ccc(F)cc4)c3C=C1CC[C@H](S(=O)(=O)C1CCCC1)C2 [Example 50, ((4aS,6S)-6-(cyclopentylsulfonyl)-1-(4-fluorophenyl)-1,4,5,6,7,8-hexahydro-4aH-benzo[f]indazol-4a-yl)(pyridin-2-yl)methanone]

IC50: ≤ 100 nM
SMILES: O=C(c1cc(C(F)(F)F)ccn1)[C@]12Cc3cnn(-c4ccc(F)cc4)c3C=C1CC[C@H](S(=O)(=O)c1cccnc1)C2 [Example 54, ((4aS,6S)-1-(4-fluorophenyl)-6-(pyridin-3-ylsulfonyl)-1,4,5,6,7,8-hexahydro-4aH-benzo[f]indazol-4a-yl)(4-(trifluoromethyl)pyridin-2-yl)methanone]

IC50: ≤ 100 nM
SMILES: O=C(c1ccc(C(F)(F)F)cn1)[C@]12Cc3cnn(-c4ccc(F)cc4)c3C=C1CC[C@H](S(=O)(=O)c1ccccn1)C2 [Example 58, ((4aS,6S)-1-(4-fluorophenyl)-6-(pyridin-2-ylsulfonyl)-1,4,5,6,7,8-hexahydro-4aH-benzo[f]indazol-4a-yl)(5-(trifluoromethyl)pyridin-2-yl)methanone]

IC50: ≤ 100 nM
SMILES: O=C(c1cc(C(F)(F)F)ccn1)[C@]12Cc3cnn(-c4ccc(F)cc4)c3C=C1CC[C@H](S(=O)(=O)C1CCOCC1)C2 [Example 59, ((4aS,6S)-1-(4-fluorophenyl)-6-((tetrahydro-2H-pyran-4-yl)sulfonyl)-1,4,5,6,7,8-hexahydro-4aH-benzo[f]indazol-4a-yl)(4-(trifluoromethyl)pyridin-2-yl)methanone]

IC50: ≤ 100 nM
SMILES: CC1(O)CCC(S(=O)(=O)[C@H]2CCC3=Cc4c(cnn4-c4ccc(F)cc4)C[C@]3(C(=O)c3ccccn3)C2)CC1 (stereo partly drawn) [Example 60, ((4aS,6S)-1-(4-fluorophenyl)-6-((4-hydroxy-4-methylcyclohexyl)sulfonyl)-1,4,5,6,7,8-hexahydro-4aH-benzo[f]indazol-4a-yl)(pyridin-2-yl)methanone]
